According to patent US7144867B2, “Anticancer glycoside compounds” (priority 2004, dated 2006):
≈ marks a conversion by molar mass, not a printed value.

Legend:
cancer cells = assay: Anti-cancer / apoptotic promoting activity, method not described
[1] = system: angiogenesis in the animal; assay: Treatment of animals, anti-angiogenic evaluation (Example 6); assay type: in vivo; conditions: contemplated; range of appropriate doses
Protocol: Frondoside A or B is evaluated for anti-angiogenic (e.g., for research, drug screening or therapeutic purposes) in live animals. Animals (e.g., having or modeling a disease characterized by unwanted angiogenesis) are treated with a range of appropriate doses of Frondoside A or B. Exemplary dosages and dosage schedules include, but are not limited to, those described herein.

[2] = system: HUVEC (human umbilical vein endothelial cells); assay: Angiogenesis, tube formation on Matrigel, Frondoside B (Example 5); assay type: cell-based; conditions: concentrations in the range of 1 μM and greater; contemplated
Protocol: (§1) Test Substance and Concentration.
Cell Line and Culture Media. […] The culture medium used is Endothelial Cell Growth Medium with 10% fetal bovine serum, which is supplemented with 1% Antibiotic-Antimycotic.
Evaluation of anti-proliferation for test substances. Matrigel matrix is thawed, kept on ice at 4° C. and 50 μL transferred to each well of a 96-microwell tissue culture plate. The plate is incubated at 37° C. for at least one hour to allow the matrix solution to solidify before treatment.
(§2) Aliquots of 200 μl of (HUVEC) suspension (about 1.5×10^4 cells/well) are placed in 96-well microtiter plate. Two microliters of compound test solution or vehicle (40% DMSO) is then added per well in duplicate and incubated at 5% CO2 at 37° C. for 18 hours. The final concentration of DMSO is 0.4%. […] Failure to form continuous networks between cell bodies in the presence of test substance is photographed and scored as to the extent of tube disruption at a magnification of 40×. […] The minimum inhibitory concentration (MIC) is calculated to assess the effect of the test substance on angiogenesis.

[3] = system: DLD-1 (human colon adenocarcinoma); assay: cells; conditions: for Percent Growth (Mean ± SEM, n = 2): 72-hour
Protocol: Test Substance and Concentration. Frondoside A (CBR-24) was dissolved in 100% DMSO and then diluted with sterile distilled water to obtain initial working solutions of 10000, 1000, 100, 10, and 1 μM in 40% DMSO. A 100-fold dilution was further made in culture media to generate final assay concentration of 100, 10, 1, 0.1 and 0.01 μM in 0.4% of DMSO.
Cell Line and Culture Media. The tumor cell line DLD-1 (human colon adenocarcinoma), obtained from American Type Culture Collection (ATCC CCL-221), was incubated in 95% air-5% CO2 gas mixture at 37° C. The culture medium used was RPMI 1640 with 10% fetal bovine serum, which was supplemented with 1% Antibiotic-Antimycotic.
(§3) Evaluation of anti-proliferation for test substances. Aliquots of 100 μl of cell suspension (about 2.5×10^3 cells/well) were placed in 96-well microtiter plates in an atmosphere of 5% CO2 at 37° C. […] Thus, the final concentration of DMSO was 0.4%. The Frondoside A was evaluated for possible inhibitory effects on cell proliferation at concentrations of 100, 10, 1, 0.1 and 0.01 μM. At the end of incubation, 20 μl of 90% alamarBlue reagent was added to each well for another 6 hour incubation before detection of cell viability by fluorescent intensity. Fluorescent intensity was measured using a Spectrafluor Plus plate reader with excitation at 530 nm and emission at 590 nm.
(§4) Determination of IC50, TGI and LC50. The measured results were calculated by the following formula: PG(%)=100%×(Mean Ftest−Mean Ftime0)/(Mean Fctrl−Mean Ftime0) If (Mean Ftest−Mean Ftime0)<0, then PG (%)=100%×(Mean Ftest−Mean Ftime0)/(Mean Ftime0−Mean Fblank) Where: • PG: percent growth • Mean Ftime0=The average of 2 measured fluorescent intensities of reduced alamarBlue at the time just before exposure of cells to the test substance. • Mean Ftest=The average of 2 measured fluorescent intensities of alamarBlue after 72-hour exposure of cells to the test substance. • Mean Fctrl=The average of 2 measured fluorescent intensities of alamarBlue after 72-hour incubation without the test substance. • Mean Fblank=The average of 2 measured fluorescent intensities of alamarBlue in medium without cells after 72-hour incubation.

[4] = system: PC-3 (human prostate adenocarcinoma); assay: cells; conditions: for Percent Growth (Mean ± SEM, n = 2): 72-hour
Protocol: Test Substance and Concentration. Frondoside A (FAS) was dissolved in 100% DMSO and then diluted with sterile distilled water to obtain initial working solutions of 1000, 300, 100, 30, and 10 μM in 40% DMSO. […]
Cell Line and Culture Media. The tumor cell line PC-3 (human prostate adenocarcinoma), obtained from American Type Culture Collection (ATCC CRL-1435), was incubated in air atmosphere of 5% CO2 at 37° C. The culture medium used was F-12K Nutrient Mixture (Kaighn's Modification) with 3% fetal bovine serum, which was supplemented with 1% Antibiotic-Antimycotic.
as §3, with “of” for “of 100,”, “10, 3,” for “10,”, “1, 0.3 and” for “1,”, “0.1” for “0.1 and 0.01”, “6-hour” for “6 hour”
as §4, with “was” for “were”

[5] = system: HUVEC (human umbilical vein endothelial cells); assay: Angiogenesis, tube formation on Matrigel; assay type: cell-based
Protocol: as §1
Cell Line and Culture Media.
Evaluation of anti-proliferation for test substances. Matrigel matrix was thawed, kept on ice at 4° C. and 50 μL transferred to each well of a 96-microwell tissue culture plate. The plate was incubated at 37° C. for at least one hour to allow the matrix solution to solidify before treatment.
as §2, with “cells/well) were” for “cells/well) are”, “DMSO) was” for “DMSO) is”, “DMSO was” for “DMSO is”, “substance was” for “substance is”, “(MIC) was” for “(MIC) is”

Molecule: 3 beta-O-{3-O-methyl-beta-D-glucopyranosyl-(1→3)-O-beta-D-6-sulfonatoglucopyranosyl-(1→4)-O-[beta-D-xylopyranosyl-(1→2)]-O-beta-D-quinovopyranosyl-(1→2)-O-beta-D-4-sulfonatoxylopyranosyl}-holost-7-ene sodium (or potassium) salt [Frondoside B]
- anti-cancer activity (cancer cells; no test described): showed anti-cancer activity
- apoptotic promoting activity in cancer cells (cancer cells; no test described for Frondoside B): apoptotic promoting activity
- angiogenesis in the animal [1]: inhibits angiogenesis
- inhibition of tube formation relative to the vehicle-treated controls [2]: significant inhibition of tube formation

Molecule: CO[C@@]12[C@H](COC(N)=O)C3=C(C(=O)C(C)=C(N)C3=O)N1C[C@@H]1N[C@@H]12 [Mitomycin, reference compound]
- Percent Growth (Mean ± SEM, n = 2) ([3]; DLD-1, 0.001 μM): 96 ± 5%
- Percent Growth (Mean ± SEM, n = 2) ([3]; DLD-1, 0.01 μM): 83 ± 8%
- Percent Growth (Mean ± SEM, n = 2) ([3]; DLD-1, 0.1 μM): 66 ± 5%
- Percent Growth (Mean ± SEM, n = 2) ([3]; DLD-1, 1 μM): 31 ± 4%
- Percent Growth (Mean ± SEM, n = 2) ([3]; DLD-1, 10 μM): −11 ± 7%
- TGI (Total Growth Inhibition) ([3]; DLD-1, semi-quantitative, nonlinear regression): 5500 nM
- IC50 ([3]; Homo sapiens, DLD-1, read-out: IC50 (50% Inhibition Concentration)): 330 nM
- activity of positive control on DLD-1 growth ([3]; at <10 μM): Significant activity
- IC50 ([4]; Homo sapiens, read-out: IC50 (50% Inhibition Concentration)): 130 nM
- Percent Growth (Mean ± SEM, n = 2) ([4]; PC-3, 0.001 μM): 103 ± 1%
- Percent Growth (Mean ± SEM, n = 2) ([4]; PC-3, 0.01 μM): 107 ± 1%
- Percent Growth (Mean ± SEM, n = 2) ([4]; PC-3, 0.1 μM): 35 ± 0%
- Percent Growth (Mean ± SEM, n = 2) ([4]; PC-3, 1 μM): 6 ± 1%
- Percent Growth (Mean ± SEM, n = 2) ([4]; PC-3, 10 μM): −77 ± 2%
- TGI (Total Growth Inhibition) ([4]; PC-3, semi-quantitative, nonlinear regression): 750 nM
- activity of standard reference agent on PC-3 growth ([4]; at <10 mM): Significant activity

Molecule: Cc1ccc(C(=O)Nc2ccc(S(=O)(=O)O)c3cc(S(=O)(=O)O)cc(S(=O)(=O)O)c23)cc1NC(=O)c1cccc(NC(=O)Nc2cccc(C(=O)Nc3cc(C(=O)Nc4ccc(S(=O)(=O)O)c5cc(S(=O)(=O)O)cc(S(=O)(=O)O)c45)ccc3C)c2)c1 [Suramin, reference compound]
- inhibition of tube formation, standard reference agent ([5]; 10 μM): significant inhibition
- inhibition at 0.3 µM ([5]; Homo sapiens, HUVEC, 0.3 μM, 18 hours, read-out: %, Inhibition of the total tube length (Mean ± SEM, n = 2)): -1 ± 8%
- inhibition at 1 µM ([5]; Homo sapiens, HUVEC, 1 μM, 18 hours, read-out: %, Inhibition of the total tube length (Mean ± SEM, n = 2)): -1 ± 7%
- inhibition at 3 µM ([5]; Homo sapiens, HUVEC, 3 μM, 18 hours, read-out: %, Inhibition of the total tube length (Mean ± SEM, n = 2)): 20 ± 8%
- inhibition at 10 µM ([5]; Homo sapiens, HUVEC, 10 μM, 18 hours, read-out: %, Inhibition of the total tube length (Mean ± SEM, n = 2)): 74%
- inhibition at 30 µM ([5]; Homo sapiens, HUVEC, 30 μM, 18 hours, read-out: %, Inhibition of the total tube length (Mean ± SEM, n = 2)): 100%
- MIC (Minimum Inhibitory Concentration) ([5]; tube formation, significant inhibition ≧30%): 10 µM (≈ 13 µg/mL)
